Data on 14 compounds can be found in the supplement of paper PMC4862054.

Assay [1] relates to CAL-148. The assay can be described thus: normalised viability (% of control), CellTiter-Blue; higher = more viable cells (about 100 = DMSO control). The settings on record: incubation time: 72 h. On the procedure: (§1)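 DSRT, CellTiter-Blue viability, 72 h incubation. Signal is normalised to DMSO and benzethonium chloride controls. Value is the normalised response at dose 7.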
Assay [2] has as its system CAL-51. Described as above. The settings on record: incubation time: 72 h. The protocol:
as §1

Assay [3] relates to CAL-85-1. Described as above. The settings on record: incubation time: 72 h. The protocol: as §1
In assay [4] the test system is DU-4475. Described as above. Particulars: incubation time: 72 h. On the procedure:
as §1

The subject of assay [5] is HDQ-P1. The description is as above. Particulars: incubation time: 72 h. On the procedure:
as §1

Assay [6] relates to MDA-MB-453. Described as above. The settings on record: incubation time: 72 h. On the procedure:
as §1

Assay [7] concerns HCC1599. Particulars: 72 h. In outline:
(§2)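 The reported EC50 was fitted from percent-inhibition dose-response curves and censored at the highest concentration. Breast cancer cell lines (20 µl suspension) were added to 384-well plates containing compound in 5 µl medium and incubated 72 h, and viability was read with 2.5 µl CellTiter-Blue over 2 h at 37 °C at 560/590 nm. Each plate was normalised to vehicle and a positive kill control and checked by Z'-factor, and rows with zero drug sensitivity score were dropped.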

The subject of assay [8] is MFM-223. The settings on record: 72 h. In short, it runs like this:
as §2

For assay [9], the system named is CAL-148. The assay can be described thus: drug sensitivity score (DSS), CellTox Green (DSS (AUC-based score)); higher = stronger drug effect (viability inhibition or cytotoxicity); extreme values may be limits of the assay. Particulars: incubation time: 72 h. In outline:
(§3)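 In 384-well plates, compound was laid out at 5 concentrations in 10-fold steps over a 10,000-fold range specific to each compound, and breast cancer cell lines were seeded on top in 20 µl suspension for a 72 h incubation. CellTox Green fluorescence and then CellTiter-Glo luminescence were read, and each plate was normalised to 0.1 % DMSO and a positive kill control. The drug sensitivity score was calculated from the area under the fitted dose-response curve.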

In assay [10] the test system is MFM-223. The assay is described as above. The settings on record: incubation time: 72 h. In outline: as §3
In assay [11] the test system is BT-549. The settings on record: 72 h. In short, it runs like this:
as §2

The test system of assay [12] is CAL-120. Particulars: 72 h. In outline: as §2
In assay [13] the test system is MDA-MB-231. The settings on record: 72 h. In outline:
as §2

Assay [14] relates to MDA-MB-468. The settings on record: 72 h. In outline: as §2
The subject of assay [15] is HCC1143. Particulars: 72 h. In short, it runs like this:
as §2

For assay [16], the system named is HCC1937. Particulars: 72 h. In outline:
as §2

In assay [17] the test system is Hs578T. Particulars: 72 h. In short, it runs like this:
as §2

Assay [18] relates to SK-BR-3. Particulars: 72 h. In short, it runs like this:
as §2

For the compound `C/C(=C\c1csc(C)n1)[C@@H]1C[C@@H]2O[C@]2(C)CCC[C@H](C)[C@H](O)[C@@H](C)C(=O)C(C)(C)[C@@H](O)CC(=O)N1` [Ixabepilone] (100 nM), the normalised viability was 86.5% in assay [1]; 108% in assay [2]; 80.5% in assay [3]; 93.7% in assay [4]; 78.1% in assay [5]; 78.5% in [6].
With `Cc1cc(Nc2nc(N[C@@H](C)c3ncc(F)cn3)ncc2Cl)[nH]n1` [AZD1480], the “EC50, CellTiter-Blue viability” value was found to be 213 nM in [7] and 64.8 nM in assay [8]. Besides, the drug sensitivity score in [9] worked out at 0; in assay [10] it was 1.25.
In the case of `CC1(C)CCC(c2ccc(Cl)cc2)=C(CN2CCN(c3ccc(C(=O)NS(=O)(=O)c4ccc(N[C@H](CCN5CCOCC5)CSc5ccccc5)c(S(=O)(=O)C(F)(F)F)c4)cc3)CC2)C1` [Navitoclax], the “EC50, CellTiter-Blue viability” value came out at 373 nM in assay [11]; 235 nM in [12]; 166 nM in assay [7]; 614 nM in assay [13]; 109 nM in [14]; 101 nM in assay [8]. The drug sensitivity score in assay [9] turned out to be 4.49; in assay [10], 1.23.
Take `C=CCN(/C=C1/C(=O)O[C@H](COC)[C@@]2(C)C1=C(O)C(=O)C1=C2[C@H](OC(C)=O)C[C@]2(C)C(=O)CC[C@@H]12)CC=C` [PX-866]: the “EC50, CellTiter-Blue viability” value turned out to be 1020 nM in assay [12]; 1130 nM in [15]; 725 nM in assay [16]; 6750 nM in [17]; 951 nM in assay [13]; 1390 nM in assay [14]. The “EC50, CellTiter-Blue viability” value in assay [18] is 1320 nM.
For `Cn1cc(C2=C(c3cn(C4CCN(Cc5ccccn5)CC4)c4ccccc34)C(=O)NC2=O)c2ccccc21` [Enzastaurin] (1000 nM), the normalised viability in assay [1] amounted to 73%; in [2] it was 90.4%; in assay [3], 83.7%; in assay [4] it was 91.7%; in [5], 81.2%; in assay [6] it was 62.8%.
Consider `CN(Cc1cnc2nc(N)nc(N)c2n1)c1ccc(C(=O)N[C@@H](CCC(=O)O)C(=O)O)cc1` [Methotrexate], for which the “EC50, CellTiter-Blue viability” value in [12] came to 15.9 nM; in assay [15] it was 15.2 nM; in [17] it was 51.5 nM; in assay [14] it was 25.1 nM; in assay [18] it was 23.5 nM. Besides, the drug sensitivity score in assay [9] and in assay [10] was 0 each time.
Regarding `CC(C)(C)NC(=O)[C@H]1CC[C@H]2[C@@H]3CC[C@H]4NC(=O)C=C[C@]4(C)[C@H]3CC[C@]12C` [Finasteride] (1000 nM), the normalised viability in assay [1] was 103%; in assay [2] it was 109%; in assay [3] it was 98.4%; in assay [4] it was 113%; in [5], 118%; in [6] it was 106%.
Take `C=CCn1c(=O)c2cnc(Nc3ccc(N4CCN(C)CC4)cc3)nc2n1-c1cccc(C(C)(C)O)n1` [MK1775] (1000 nM): the normalised viability came out at 9.04% in [1]; 16.6% in [2]; 40.5% in assay [3]; 32.2% in assay [4]; 47.8% in [5]; 23.2% in [6].
On to `CC(O)(CS(=O)(=O)c1ccc(F)cc1)C(=O)Nc1ccc(C#N)c(C(F)(F)F)c1` (configuration not stated) [Bicalutamide] (1000 nM), for which the normalised viability in assay [1] was found to be 102%; in assay [2] it was 108%; in assay [3], 91.1%; in assay [4], 90.1%; in assay [5], 91.4%; in assay [6], 102%.
As to `CC(C)(C)NC(=O)[C@H]1CC[C@H]2[C@@H]3CC[C@H]4NC(=O)C=C[C@]4(C)[C@H]3CC[C@]12C` [Finasteride], the “EC50, CellTiter-Blue viability” value in assay [8] stood at 8260 nM. Further, the drug sensitivity score in assay [9] came out at 0; in assay [10], 3.14.
Turning to `O=C(CCCCCCC(=O)Nc1ccccc1)NO` [Vorinostat], the “EC50, CellTiter-Blue viability” value in assay [11] is 2860 nM; in assay [12], 1720 nM; in [15], 2590 nM; in assay [7], 3270 nM; in [16], 2480 nM; in [17], 3080 nM. In addition, the “EC50, CellTiter-Blue viability” value in [13] was 3110 nM; in assay [14] it was 1480 nM; in [8] it was 2050 nM; in [18], 617 nM. The drug sensitivity score in [9] was 1.45; in assay [10] it was 0.
Turning to `Nc1ccn([C@@H]2O[C@H](CO)[C@@H](O)C2(F)F)c(=O)n1` [Gemcitabine] (100 nM), the normalised viability in assay [1] is 33.7%; in assay [2], 16.3%; in assay [3], 49.8%; in assay [4], 45.1%; in [5] it was 92.3%; in assay [6], 48.3%.
Turning to `Cc1cn(-c2cc(NC(=O)c3ccc(C)c(Nc4nccc(-c5cccnc5)n4)c3)cc(C(F)(F)F)c2)cn1` [Nilotinib], the “EC50, CellTiter-Blue viability” value in [11] amounted to 2590 nM; in assay [16], 117 nM. Also, the drug sensitivity score in assay [9] and in assay [10] was 0 each time.
For `COc1ccc(S(=O)(=O)Nc2cccnc2Nc2ccc(O)cc2)cc1` [ABT-751] (1000 nM), the normalised viability in assay [1] stood at 52.5%; in assay [2], 39.7%; in assay [3], 32.3%; in assay [4], 66.1%; in assay [5] it was 51.3%; in assay [6] it was 25.2%.
